Reference: patent US10294202B2, “Pyrrolidinones as herbicides” (FMC Corporation, priority 2013, dated 2019)
Read-outs that look alike come from different tables or passages of the source.

How the values were obtained:
[1] = tested on: barnyardgrass; experiment: Test A pre-/postemergence herbicide test; type: in vivo, Echinochloa crus-galli; settings: for pest or weed control at 500 g/ha: 500 g ai/ha, 0 to 100 scale (0 no effect, 100 complete control)
Procedure, shortened: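 Greenhouse pot test with pre- and postemergence application of surfactant-containing solvent formulations. Postemergence plants were 2–10 cm, one- to two-leaf stage. Response scored visually after ~10 days, 0 (no effect) to 100 (complete control).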

[2] = tested on: barnyardgrass; experiment: Test B flooded paddy test; type: in vivo, Echinochloa crus-galli; settings: 250 g ai/ha, Flood; scale of 0 to 100 where 0 is no effect and 100 is complete control
Procedure, shortened: (§1)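 First, plants reach the 2-leaf stage; next, pots are flooded to 3 cm and compound is delivered into the water; finally, after 13 to 15 greenhouse days at constant depth, injury is graded visually from 0 to 100 against controls.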

[3] = tested on: foxtail, giant; experiment: Test C pre-/postemergence herbicide test; type: in vivo, Setaria faberii
Procedure, shortened: (§2)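 Greenhouse pots; formulation = non-phytotoxic solvent mix + surfactant. PRE onto seeds in loam:sand; POST at 1–4 leaves (2–18 cm) in peat moss/vermiculite medium. Read-out: visual % control vs untreated, day 13–15.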

[4] = tested on: lambsquarters; experiment: Test C pre-/postemergence herbicide test; type: in vivo, Chenopodium album
Procedure, shortened: as §2

[5] = tested on: rice; experiment: Test B flooded paddy test; type: in vivo, Oryza sativa; settings: 250 g ai/ha, Flood; scale of 0 to 100 where 0 is no effect and 100 is complete control
Procedure, shortened: as §1

[6] = tested on: corn; experiment: Test C pre-/postemergence herbicide test; type: in vivo, Zea mays
Procedure, shortened: as §2

[7] = tested on: pigweed; experiment: Test C pre-/postemergence herbicide test; type: in vivo, Amaranthus retroflexus
Procedure, shortened: as §2

[8] = tested on: crabgrass, large; experiment: Test C pre-/postemergence herbicide test; type: in vivo, Digitaria sanguinalis
Procedure, shortened: as §2

[9] = tested on: blackgrass; experiment: Test C pre-/postemergence herbicide test; type: in vivo, Alopecurus myosuroides
Procedure, shortened: as §2

[10] = tested on: galium; experiment: Test C pre-/postemergence herbicide test; type: in vivo, Galium aparine
Procedure, shortened: as §2

[11] = tested on: velvetleaf; experiment: Test C pre-/postemergence herbicide test; type: in vivo, Abutilon theophrasti
Procedure, shortened: as §2

[12] = Postemergence, 31 g ai/ha, scale 0 (no effect) to 100 (complete control)
[13] = Postemergence, 62 g ai/ha, scale 0 to 100 (0 no effect, 100 complete control)
[14] = Postemergence, 125 g ai/ha, scale 0 to 100 (0 no effect, 100 complete control)
[15] = Postemergence, 250 g ai/ha, scale 0 to 100 (0 no effect, 100 complete control)
[16] = Preemergence, 31 g ai/ha, scale 0 to 100, 0 is no effect and 100 is complete control
[17] = Preemergence, 62 g ai/ha, scale 0 to 100
[18] = Preemergence, 125 g ai/ha, scale 0 to 100 (0 no effect, 100 complete control)

O=C1NCC(c2ccc(C(F)(F)F)cc2)C1C(=O)Nc1ccccc1F (stereo not drawn) [Compound 79, N-(2-fluorophenyl)-2-oxo-4-[4-(trifluoromethyl)phenyl]-3-pyrrolidinecarboxamide]
pest or weed control at 125 g/ha ([1]; Echinochloa crus-galli, post-emergence, 240 h, Postemergence, 125 g ai/ha, 0 to 100 scale, 0 no effect, 100 complete control, read-out: Plant response rating, Barnyardgrass): 80% | pest or weed control at 500 g/ha ([1]; Echinochloa crus-galli, post-emergence, 240 h, Postemergence, read-out: Plant response rating, Barnyardgrass): 90% | pest or weed control at 500 g/ha ([1]; Echinochloa crus-galli, pre-emergence, 240 h, preemergence, read-out: Plant response rating, Barnyardgrass): 90% | Barnyardgrass plant response rating ([1]; Preemergence, 125 g ai/ha, visual rating on 0 to 100 scale (0 no effect, 100 complete control)): 80 | Plant response rating, Barnyardgrass [2]: 0 | Plant response rating, Foxtail, Giant [3, 12]: 15 | Plant response rating, Foxtail, Giant [3, 13]: 15 | Plant response rating, Foxtail, Giant [3, 14]: 15 | Plant response rating, Foxtail, Giant [3, 15]: 15 | Foxtail, Giant plant response rating [3, 16]: 80 | Plant response rating, Foxtail, Giant [3, 17]: 90 | Plant response rating, Foxtail, Giant [3, 18]: 95 | Plant response rating (scale of 0 to 100), Foxtail, Giant ([3]; Preemergence, 250 g ai/ha): 98 | Plant response rating, Lambsquarters [4, 12]: 25 | Plant response rating, Lambsquarters [4, 13]: 50 | Plant response rating, Lambsquarters [4, 14]: 85 | Plant response rating, Lambsquarters [4, 15]: 85 | Lambsquarters plant response rating [4, 16]: 90 | Plant response rating, Lambsquarters [4, 17]: 90 | Plant response rating, Lambsquarters [4, 18]: 90 | Plant response rating (scale of 0 to 100), Lambsquarters ([4]; Preemergence, 250 g ai/ha): 90 | Plant response rating, Rice [5]: 0 | Plant response rating, Corn [6, 12]: 0 | Plant response rating, Corn [6, 13]: 0 | Plant response rating, Corn [6, 14]: 0 | Plant response rating, Corn [6, 15]: 0 | Corn plant response rating [6, 16]: 0 | Plant response rating, Corn [6, 17]: 0 | Plant response rating, Corn [6, 18]: 10 | Plant response rating (scale of 0 to 100), Corn ([6]; Preemergence, 250 g ai/ha): 30 | Plant response rating, Pigweed [7, 12]: 35 | Plant response rating, Pigweed [7, 13]: 35 | Plant response rating, Pigweed [7, 14]: 35 | Plant response rating, Pigweed [7, 15]: 35 | Pigweed plant response rating [7, 16]: 10 | Plant response rating, Pigweed [7, 17]: 40 | Plant response rating, Pigweed [7, 18]: 50 | Plant response rating (scale of 0 to 100), Pigweed ([7]; Preemergence, 250 g ai/ha): 65 | Plant response rating, Crabgrass, Large [8, 12]: 5 | Plant response rating, Crabgrass, Large [8, 13]: 5 | Plant response rating, Crabgrass, Large [8, 14]: 65 | Plant response rating, Crabgrass, Large [8, 15]: 75 | Crabgrass, Large plant response rating [8, 16]: 95 | Plant response rating, Crabgrass, Large [8, 17]: 98 | Plant response rating, Crabgrass, Large [8, 18]: 100 | Plant response rating (scale of 0 to 100), Crabgrass, Large ([8]; Preemergence, 250 g ai/ha): 100 | Plant response rating, Blackgrass [9, 12]: 0 | Plant response rating, Blackgrass [9, 13]: 0 | Plant response rating, Blackgrass [9, 14]: 0 | Plant response rating, Blackgrass [9, 15]: 5 | Blackgrass plant response rating [9, 16]: 0 | Plant response rating, Blackgrass [9, 17]: 65 | Plant response rating, Blackgrass [9, 18]: 85 | Plant response rating (scale of 0 to 100), Blackgrass ([9]; Preemergence, 250 g ai/ha): 85 | Plant response rating, Galium [10, 12]: 30 | Plant response rating, Galium [10, 13]: 60 | Plant response rating, Galium [10, 14]: 60 | Galium plant response rating [10, 16]: 0 | Plant response rating, Galium [10, 17]: 5 | Plant response rating, Galium [10, 18]: 85 | Plant response rating (scale of 0 to 100), Galium ([10]; Preemergence, 250 g ai/ha): 90 | Plant response rating, Velvetleaf [11, 12]: 0 | Plant response rating, Velvetleaf [11, 13]: 0 | Plant response rating, Velvetleaf [11, 14]: 0 | Plant response rating, Velvetleaf [11, 15]: 0 | Velvetleaf plant response rating [11, 16]: 0 | Plant response rating, Velvetleaf [11, 17]: 0 | Plant response rating, Velvetleaf [11, 18]: 20 | Plant response rating (scale of 0 to 100), Velvetleaf ([11]; Preemergence, 250 g ai/ha): 35
